Assay: gradient 5% acetonitrile 3 min, to 50% in 2 min, to 85% in 15 min, held 3 min, 100 µL/min
Conditions: column: Zorbax Extend-C18 2.1 x 50 mm; eluents: water / acetonitrile, 0.1% formic acid
Outline: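 Pure standards were run in mixtures of ~100 molecules by HPLC coupled to a quadrupole time-of-flight mass spectrometer. The column was a Zorbax Extend-C18 (2.1 × 50 mm, 1.8 μm) at 100 μL/min, with water and acetonitrile each containing 0.1% formic acid, in positive and negative ionization mode. Dead and dwell volumes were 40 μL and 900 μL. Retention time was taken from computationally picked adduct peaks, each manually inspected, with data collected over 3 months.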

Row | Structure (SMILES) | RP-LC retention time
1 | CCc1nnc(NC(=O)CSc2nnc(Cn3c(=O)sc4ccccc43)n2C)s1 | 658 s
2 | Cc1ccc(CNC(=O)C2CCN(S(=O)(=O)c3ccc4c(c3)NC(=O)CO4)CC2)o1 | 715 s
3 | CN1CCCN(C(=O)Nc2ccc3c(c2)OCCO3)c2ccccc21 | 649 s
4 | CCN1C(=O)COc2cc(-c3noc(C(=O)NC4CCCC4)n3)ccc21 | 936 s
5 | CC1=C(C(=O)N2CCOCC2)C(c2cccc(Br)c2)C2=C(CCCC2=O)N1 (centres undefined) | 664 s
6 | CSc1nc2nc3c(cn2n1)C(=O)CC(C)C3 (centres undefined) | 705 s
7 | Cc1sc(-c2cc(C(F)(F)F)[nH]n2)cc1S(=O)(=O)N1CCN(C2CCCCC2)CC1 | 726 s
8 | Cc1c(NS(C)(=O)=O)cccc1-c1nc2cccnc2s1 | 682 s
9 | Cc1ccc2c(c1)NC(=O)C(CC(=O)N1CCN(c3cccc(C)c3C)CC1)CO2 (centres undefined) | 781 s
10 | Cc1cc(C)c2[nH]c3c(c(=O)c2c1)CN(CC(=O)NCc1ccccc1F)CC3 | 626 s
11 | CN(C)CCc1c[nH]c2ccc(CS(=O)(=O)N3CCCC3)cc12 | 629 s
12 | CCc1cc(=O)n(CC(=O)Nc2cc(C)ccc2C)c(N2CCOCC2)n1 | 747 s
13 | CN(CCc1noc(-c2ccc(C(=O)N3CCOCC3)cc2)n1)C(=O)Cc1ccc(Cl)cc1 | 757 s
14 | CC1CCN(c2cc(-c3noc(C(=O)N4CCN(C5CCCCC5)CC4)n3)ccn2)CC1 | 647 s
15 | COC(=O)c1ccc(NC(=O)CSc2nnc(CN3CCOCC3)o2)cc1 | 576 s
16 | CC(=O)N1CCOc2cc(S(=O)(=O)N3CCCCCC3c3cccc(F)c3)ccc21 (centres undefined) | 999 s
17 | Cc1cc(C)cc(-c2nc(-c3ccc4c(c3)oc(=O)n4C(C)C)no2)c1 | 1140 s
18 | Cc1ccccc1-c1nc2nc(C)c(CC(=O)N3CCCC3)c(C)n2n1 | 735 s
19 | CCC1(C(=O)Nc2cc(OC)ccc2OC)CCCCC(=O)N1 (centres undefined) | 722 s
20 | CCOCCCNC(=O)N1c2ccccc2CC1c1nc(C(C)C)no1 (centres undefined) | 901 s
21 | Cc1ccc(-n2c(SCc3nc(-c4ccc(F)cc4)no3)nc3cc4c(cc3c2=O)OCO4)cc1 | 1220 s

Row | Structure (SMILES) | RP-LC retention time
22 | CCn1c(CN2CCN(S(C)(=O)=O)CC2)nc2cc(NC(C)=O)ccc21 | 588 s
23 | Cc1csc(-c2cc(S(=O)(=O)Nc3ccc(F)cc3F)cn2CC(=O)N2CCCC2)n1 | 880 s
24 | Cc1noc2nc(C)n(CC(=O)Nc3ccccc3Br)c(=O)c12 | 766 s
25 | CCc1ccc(C(=O)N2CCN(c3nc(CN4CCCCCC4)cs3)CC2)cc1 | 708 s
26 | CC(=O)Nc1nc(N2CCC(C(=O)NCc3cccnc3)CC2)sc1C(=O)N1CCCC1 | 581 s
27 | c1cc2c(cc1-c1noc(C3CCC3)n1)ncn2CCN1CCCC1 | 596 s
28 | COc1ccc(NC(=O)C2CCCN2S(=O)(=O)c2cc3c(cc2C)NC(=O)CO3)cc1Cl (centres undefined) | 775 s
29 | COCC(=O)N1CCCN(C2=NS(=O)(=O)C(c3ccc(F)cc3)=C2C)CC1 | 677 s
30 | Fc1ccc(-c2noc(-c3ccc(N4CCC5(CC4)OCCO5)nc3)n2)cc1 | 1180 s
31 | Cc1csc(-c2cc(S(=O)(=O)NCCC3=CCCCC3)cn2CC(=O)N2CCCC2)n1 | 1030 s
32 | CCc1nc(-c2csc(S(=O)(=O)N3CCC(C(=O)Nc4ccccc4F)CC3)c2)no1 | 981 s
33 | O=C(c1cc(=O)[nH]c2ccccc12)N1CCCC1 | 598 s
34 | Cc1noc([C@@H]2CN(C(=O)Cc3ccsc3)C[C@H]2C(N)=O)n1 | 618 s
35 | COCc1nc2cccnc2n1C1CCN(C(=O)Nc2cc(OC)c(OC)c(OC)c2)CC1 | 659 s
36 | COc1ccc(Cc2nc3ccc(C(=O)NCc4ccc(C)o4)cc3o2)cc1 | 918 s
37 | CCOc1ccc(CN2CCC3(CCC3O)CC2)cc1OCC (centres undefined) | 598 s
38 | O=C(Cn1cnc2nc(N3CCCC(C(=O)NC4CC4)C3)sc2c1=O)Nc1ccc2c(c1)CCC2 (centres undefined) | 744 s
39 | CCCNC(=O)N1CCC2(CC1)Nc1cc(F)ccc1-n1cccc12 | 888 s
40 | COc1cccc(NC(=O)Cn2c(N3CCOCC3)nc(C)cc2=O)c1 | 652 s
41 | CCOc1cc(=O)n2c(c1C(=O)Nc1cc(F)ccc1F)CCCC2 | 748 s
42 | Cc1cc(F)ccc1NC(=O)Cn1c(C)cc(-c2nnc(C3CCC3)o2)c1C | 934 s

Row | Structure (SMILES) | RP-LC retention time
43 | Clc1ccc(-c2nc(NC3CCCCCC3)c3ccccc3n2)cc1 | 1030 s
44 | COc1ccc(Cn2cccc(S(=O)(=O)N3CCCC3)c2=O)cc1F | 843 s
45 | Cc1ccc(N2CC(c3noc(-c4ccc(C(C)(C)C)cc4)n3)CC2=O)cc1 (centres undefined) | 1310 s
46 | COc1ccc(C2=C(C)C(N3CCC(C(=O)N(C)Cc4ccco4)CC3)=NS2(=O)=O)cc1 | 815 s
47 | CC(C)CCNC(=O)C1CCCN(c2ccnc(-c3ccc(F)cc3)n2)C1 (centres undefined) | 690 s
48 | COC(=O)Nc1ccc2c(c1)C(=O)N(C)CCO2 | 587 s
49 | CCn1nccc1C(=O)NCCn1c(=O)n(Cc2ccc(F)cc2)c2cccnc21 | 729 s
50 | CCOc1ncccc1CNC(=O)c1ccc2nc[nH]c2c1 | 569 s
51 | Cc1cc(C(=O)N2CCCCC2)c2c(=O)n(CC(=O)c3c(C)n(C)c4ccccc34)c(=O)n(C)c2n1 | 934 s
52 | O=C(Cn1c(Cc2ccccc2)nc2ccccc21)N1CCCCC1 | 667 s
53 | CC(C)NC(=O)C1CCCN(S(=O)(=O)c2cc(-c3noc(C4CCCC4)n3)cs2)C1 (centres undefined) | 1050 s
54 | CC(=O)N1CCC(C2CCN(C(=O)C3CC=CC3)C2)CC1 (centres undefined) | 664 s
55 | O=C(NC1CCSC1=O)c1ccccc1 (centres undefined) | 638 s
56 | CC(C)(C)c1ccc(C(=O)NC2CCN(c3cc(-c4ccc(Cl)cc4)[nH]n3)C2)cc1 (centres undefined) | 976 s
57 | CCOC(=O)c1c(C)[nH]c(CCC(=O)NCCN2CCCCC2C)c1C (centres undefined) | 618 s
58 | CCn1nc(C)c(CNC(=O)Nc2cc(OC)c(OC)c(OC)c2)c1C | 615 s
59 | O=C(C1COc2ccccc2O1)N1CCOc2ccc(N3CCCC3)cc2C1 (centres undefined) | 794 s
60 | O=C(CSc1nnc(-c2ccncc2)o1)NCc1ccc2c(c1)OCO2 | 596 s
61 | COc1cccc(/C=C/C(=O)NC2(c3nc(C(C)C)no3)CCCCC2)c1 | 1050 s
62 | CCCNC(=O)C1CCCN(c2nnc3c(Cl)cccn23)C1 (centres undefined) | 571 s

Further lines, results first:

Row | RP-LC retention time | Structure (SMILES)
63 | 964 s | Cc1cc(C(=O)NCc2ccc(C)o2)c2c(C)nn(-c3ccccc3)c2n1
64 | 1020 s | O=C(O)c1ccc2c(c1Nc1ccccc1)C(=O)c1ccccc1C2=O
65 | 761 s | Cc1cc(Nc2ccccc2)nc(N2CCN(C(=O)Nc3ccc(Cl)cc3)CC2)n1
66 | 1140 s | O=C(Cc1csc(-c2ccccc2)n1)Nc1nc(-c2ccc(F)cc2)cs1
67 | 1050 s | CC(C)c1ccc(S(=O)(=O)N2CCC(C)(C(=O)NCc3ccccc3)CC2)cc1
68 | 894 s | COc1cc(NC(=O)CN2C(=O)C(O)(c3cccc(F)c3)c3ccccc32)cc(OC)c1 (centres undefined)
69 | 669 s | COc1cc(NC(=O)CN2CCN(Cc3ccccc3)C(=O)C2=O)cc(OC)c1OC
70 | 684 s | CCOC(=O)c1cnc2nc(C)ccc2c1Nc1ccc(F)c(C#N)c1
71 | 808 s | O=C1CCC2(C(=O)NCCc3ccccc3)CCCC=C2N1c1ccccc1 (centres undefined)
72 | 607 s | CCCN1CCN(c2cc(C(=O)O)c3cc(NS(=O)(=O)c4cccc(C)c4)ccc3n2)CC1
73 | 991 s | O=C(Nc1ncc(Cc2ccccc2Cl)s1)c1cc2ccccc2c(=O)o1
74 | 1280 s | Cc1nn(-c2nc(-c3ccc(F)cc3)cs2)c(C)c1CC(=O)Nc1cccc(C(F)(F)F)c1
75 | 603 s | c1ccc(-c2oncc2CN2CCN(c3ccccn3)CC2)cc1
76 | 633 s | CNC(=O)c1ccc(-c2nc3cc(NS(=O)(=O)c4ccccc4Cl)ccc3n2C)cc1
77 | 1080 s | CCc1ccc(C(=O)Nc2nnc(SCc3nnc(-c4ccccc4C)o3)s2)cc1
78 | 924 s | CCc1noc(-c2ccc(-n3cnc(C(=O)N4CCc5ccccc5C4)c3)nc2)n1
79 | 800 s | CN(c1ccccc1)c1nc(=O)n(CC(=O)Nc2ccc3c(c2)OCO3)c2ccccc12
80 | 612 s | O=C(Cc1cccs1)N1CCc2[nH]cnc2C1c1ccccc1 (centres undefined)
81 | 890 s | CC(NC(=O)c1ccccc1)c1nc(-c2ccc(NS(=O)(=O)c3cccs3)cc2)no1 (centres undefined)
82 | 1220 s | CCOC(=O)c1cc([N+](=O)[O-])sc1NC(=O)c1c(-c2ccccc2Cl)noc1C
83 | 819 s | CCc1ccc(CN2C(=O)c3ccccc3C2C(=O)NCCCOC)cc1 (centres undefined)
84 | 842 s | O=c1ccc(N2CCCN(S(=O)(=O)c3ccc(F)cc3F)CC2)nn1-c1ccccc1
85 | 853 s | CCC(C)NC(=O)Nc1cc2c(cc1Oc1ccccc1)n(C)c(=O)n2C (centres undefined)
86 | 1060 s | O=C(Cn1cccc(-c2nc(-c3ccc(Br)cc3)no2)c1=O)NCCc1ccccc1
87 | 1040 s | COC(=O)c1cccc(NC(=O)c2sc3ncccc3c2-n2cccc2)c1
88 | 745 s | O=C(NCC(O)c1cccc2ccccc12)Nc1c(F)cccc1F (centres undefined)
89 | 702 s | COc1ccccc1NC(=O)Nc1cccc(-c2ccc(N3CCOCC3)nn2)c1
